In patent publication US10562887B2, “Triazolones and tetrazolones as inhibitors of ROCK” (BRISTOL-MYERS SQUIBB COMPANY, priority 2016, dated 2020):

Each compound was assayed against ROCK2 (Homo sapiens (Human), UniProt O75116) (assay: ROCK2 assay (peptide phosphorylation, LABCHIP 3000 Reader)). Conditions: 5 μM ATP, 1.5 μM peptide substrate.
Sequence of ROCK2 (O75116 whole entry, species assumed): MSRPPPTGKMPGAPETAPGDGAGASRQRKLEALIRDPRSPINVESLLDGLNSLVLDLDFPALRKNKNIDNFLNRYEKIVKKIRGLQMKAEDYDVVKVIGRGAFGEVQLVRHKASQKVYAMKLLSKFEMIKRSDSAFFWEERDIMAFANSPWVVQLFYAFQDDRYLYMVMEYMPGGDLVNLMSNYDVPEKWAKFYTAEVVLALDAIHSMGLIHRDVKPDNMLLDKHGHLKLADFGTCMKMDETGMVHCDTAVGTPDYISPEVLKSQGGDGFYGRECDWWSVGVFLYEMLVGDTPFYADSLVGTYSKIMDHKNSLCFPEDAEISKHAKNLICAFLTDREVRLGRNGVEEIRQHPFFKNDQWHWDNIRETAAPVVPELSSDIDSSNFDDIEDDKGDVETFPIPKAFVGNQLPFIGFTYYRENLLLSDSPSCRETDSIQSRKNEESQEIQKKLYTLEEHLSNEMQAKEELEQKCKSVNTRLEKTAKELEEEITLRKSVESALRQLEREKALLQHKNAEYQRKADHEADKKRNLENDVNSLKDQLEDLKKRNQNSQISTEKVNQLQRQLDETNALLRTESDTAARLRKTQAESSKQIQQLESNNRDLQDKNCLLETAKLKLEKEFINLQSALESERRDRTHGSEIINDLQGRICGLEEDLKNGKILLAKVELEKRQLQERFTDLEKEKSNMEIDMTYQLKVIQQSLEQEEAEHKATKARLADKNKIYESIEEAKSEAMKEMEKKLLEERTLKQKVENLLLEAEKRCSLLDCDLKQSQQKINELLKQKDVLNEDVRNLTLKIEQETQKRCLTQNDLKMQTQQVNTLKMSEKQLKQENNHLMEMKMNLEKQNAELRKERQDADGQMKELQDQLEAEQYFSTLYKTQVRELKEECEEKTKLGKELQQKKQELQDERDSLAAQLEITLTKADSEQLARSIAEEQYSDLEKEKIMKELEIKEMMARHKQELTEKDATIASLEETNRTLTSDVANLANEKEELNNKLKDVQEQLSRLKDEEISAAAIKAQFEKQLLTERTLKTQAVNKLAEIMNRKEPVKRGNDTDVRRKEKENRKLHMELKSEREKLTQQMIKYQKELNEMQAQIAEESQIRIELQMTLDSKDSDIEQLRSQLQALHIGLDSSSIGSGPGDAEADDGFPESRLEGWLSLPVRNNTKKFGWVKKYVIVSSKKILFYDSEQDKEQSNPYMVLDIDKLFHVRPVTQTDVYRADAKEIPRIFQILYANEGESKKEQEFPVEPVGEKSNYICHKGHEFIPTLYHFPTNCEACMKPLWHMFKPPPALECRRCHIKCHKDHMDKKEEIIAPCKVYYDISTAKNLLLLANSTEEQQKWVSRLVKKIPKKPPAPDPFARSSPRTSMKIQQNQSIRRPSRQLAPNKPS
Assay type: biochemical
In short: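 Human ROCK2 reaction in 20 mM HEPES pH 7.5, 20 mM MgCl2, 0.015% Brij-35, 4 mM DTT, with 5 μM ATP and 1.5 μM FITC-labelled peptide, DMSO <2%. Stopped with EDTA; phosphorylated and unphosphorylated peptide separated by microfluidic mobility shift. IC50 from dose-response curve fit.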
In the case of `COc1cc(-n2nc(C)n(C(C)c3ccccc3)c2=O)ccc1-c1cn[nH]c1` (stereo not shown) [Example 93, 1-(3-methoxy-4-(1H-pyrazol-4-yl)phenyl)-3-methyl-4-(1-phenylethyl)-1H-1,2,4-triazol-5(4H)-one], the IC50 is reported as 5 to 50 nM. `COc1cc(-n2nc(C)n(CCc3ccccc3)c2=O)ccc1-c1cn[nH]c1` [Example 94, 1-(3-methoxy-4-(1H-pyrazol-4-yl)phenyl)-3-methyl-4-phenethyl-1H-1,2,4-triazol-5(4H)-one] was tested, and the IC50 was 5 to 50 nM. `COc1cc(-n2nc(C)n(Cc3ccccc3F)c2=O)ccc1-c1cn[nH]c1` [Example 95, 4-(2-fluorobenzyl)-1-(3-methoxy-4-(1H-pyrazol-4-yl)phenyl)-3-methyl-1H-1,2,4-triazol-5(4H)-one] showed an IC50 of 5 to 50 nM. Work on `Cc1nn(-c2ccc(-c3cn[nH]c3)cc2)c(=O)n1Cc1cc(F)cc(F)c1` [Example 96, 1-(4-(1H-pyrazol-4-yl)phenyl)-4-(3,5-difluorobenzyl)-3-methyl-1H-1,2,4-triazol-5(4H)-one] yielded an IC50 of 5 to 50 nM. `COc1cc(-n2nc(C)n(Cc3cccc(C#N)c3)c2=O)ccc1-c1cn[nH]c1` [Example 97, 3-((1-(3-methoxy-4-(1H-pyrazol-4-yl)phenyl)-3-methyl-5-oxo-1H-1,2,4-triazol-4(5H)-yl)methyl)benzonitrile] showed an IC50 of 50 to 250 nM. `COc1cc(-n2nc(C)n(Cc3c(F)cccc3F)c2=O)ccc1-c1cn[nH]c1` [Example 98, 4-(2,6-difluorobenzyl)-1-(3-methoxy-4-(1H-pyrazol-4-yl)phenyl)-3-methyl-1H-1,2,4-triazol-5(4H)-one] was tested, and the IC50 was 5 to 50 nM. Compound `COc1cc(-n2nc(C)n(Cc3cc(F)cc(F)c3)c2=O)ccc1-c1cn[nH]c1` [Example 99, 4-(3,5-difluorobenzyl)-1-(3-methoxy-4-(1H-pyrazol-4-yl)phenyl)-3-methyl-1H-1,2,4-triazol-5(4H)-one] has an IC50 of 5 to 50 nM. For `COc1cc(-n2nc(C)n(Cc3cccc(OC(F)F)c3)c2=O)ccc1-c1cn[nH]c1` [Example 100, 4-(3-(difluoromethoxy)benzyl)-1-(3-methoxy-4-(1H-pyrazol-4-yl)phenyl)-3-methyl-1H-1,2,4-triazol-5(4H)-one], the IC50 was 5 to 50 nM. In the case of `COc1cc(-n2nc(C)n(Cc3ccc(F)cc3)c2=O)ccc1-c1cn[nH]c1` [Example 101, 4-(4-fluorobenzyl)-1-(3-methoxy-4-(1H-pyrazol-4-yl)phenyl)-3-methyl-1H-1,2,4-triazol-5(4H)-one], the IC50 is reported as 5 to 50 nM. With `Cc1nn(-c2ccc(-c3cn[nH]c3)cc2)c(=O)n1Cc1cccc(OC(F)F)c1` [Example 102, 1-(4-(1H-pyrazol-4-yl)phenyl)-4-(3-(difluoromethoxy)benzyl)-3-methyl-1H-1,2,4-triazol-5(4H)-one] the IC50 was 50 to 250 nM. Compound `Cc1nn(-c2ccc(-c3cn[nH]c3)cc2)c(=O)n1Cc1cccc(C#N)c1` [Example 103, 3-((1-(4-(1H-pyrazol-4-yl)phenyl)-3-methyl-5-oxo-1H-1,2,4-triazol-4(5H)-yl)methyl)benzonitrile] has an IC50 of 250 to 2000 nM. For `Cc1nn(-c2ccc(-c3cn[nH]c3)cc2)c(=O)n1Cc1c(F)cccc1F` [Example 104, 1-(4-(1H-pyrazol-4-yl)phenyl)-4-(2,6-difluorobenzyl)-3-methyl-1H-1,2,4-triazol-5(4H)-one], the IC50 was 50 to 250 nM. Work on `CCc1cc(-n2nc(C)n(Cc3cccc(OC)c3)c2=O)ccc1-c1cn[nH]c1` [Example 105, 1-(3-ethyl-4-(1H-pyrazol-4-yl)phenyl)-4-(3-methoxybenzyl)-3-methyl-1H-1,2,4-triazol-5(4H)-one] yielded an IC50 of 5 to 50 nM. In the case of `CCc1cc(-n2nc(C)n(Cc3cccc(F)c3)c2=O)ccc1-c1cn[nH]c1` [Example 106, 1-(3-ethyl-4-(1H-pyrazol-4-yl)phenyl)-4-(3-fluorobenzyl)-3-methyl-1H-1,2,4-triazol-5(4H)-one], the IC50 is reported as 5 to 50 nM. Compound `CCc1cc(-n2nc(C)n(Cc3cc(F)ccc3F)c2=O)ccc1-c1cn[nH]c1` [Example 107, 4-(2,5-difluorobenzyl)-1-(3-ethyl-4-(1H-pyrazol-4-yl)phenyl)-3-methyl-1H-1,2,4-triazol-5(4H)-one] has an IC50 of 50 to 250 nM. Work on `CCc1cc(-n2nc(C)n(Cc3cc(F)cc(F)c3)c2=O)ccc1-c1cn[nH]c1` [Example 108, 4-(3,5-difluorobenzyl)-1-(3-ethyl-4-(1H-pyrazol-4-yl)phenyl)-3-methyl-1H-1,2,4-triazol-5(4H)-one] yielded an IC50 of 5 to 50 nM. For `CCc1cc(-n2nc(C)n(C(C)c3ccccc3)c2=O)ccc1-c1cn[nH]c1` (stereo not shown) [Example 109, 1-(3-ethyl-4-(1H-pyrazol-4-yl)phenyl)-3-methyl-4-(1-phenylethyl)-1H-1,2,4-triazol-5(4H)-one], the IC50 was 250 to 2000 nM. With `CCc1cc(-n2nc(C)n(CCc3ccccc3)c2=O)ccc1-c1cn[nH]c1` [Example 110, 1-(3-ethyl-4-(1H-pyrazol-4-yl)phenyl)-3-methyl-4-phenethyl-1H-1,2,4-triazol-5(4H)-one] the IC50 was 250 to 2000 nM. For `CCc1cc(-n2nc(C)n(Cc3cccc(C#N)c3)c2=O)ccc1-c1cn[nH]c1` [Example 111, 3-((1-(3-ethyl-4-(1H-pyrazol-4-yl)phenyl)-3-methyl-5-oxo-1H-1,2,4-triazol-4(5H)-yl)methyl)benzonitrile], the IC50 was 250 to 2000 nM. `CCc1cc(-n2nc(C)n(Cc3cccc(OC(F)F)c3)c2=O)ccc1-c1cn[nH]c1` [Example 112, 4-(3-(difluoromethoxy)benzyl)-1-(3-ethyl-4-(1H-pyrazol-4-yl)phenyl)-3-methyl-1H-1,2,4-triazol-5(4H)-one] gave an IC50 of 50 to 250 nM. `CCc1cc(-n2nc(C)n(Cc3ccccc3F)c2=O)ccc1-c1cn[nH]c1` [Example 113, 1-(3-ethyl-4-(1H-pyrazol-4-yl)phenyl)-4-(2-fluorobenzyl)-3-methyl-1H-1,2,4-triazol-5(4H)-one] was tested, and the IC50 was 50 to 250 nM. `CCc1cc(-n2nc(C)n(Cc3ccc(F)cc3)c2=O)ccc1-c1cn[nH]c1` [Example 114, 1-(3-ethyl-4-(1H-pyrazol-4-yl)phenyl)-4-(4-fluorobenzyl)-3-methyl-1H-1,2,4-triazol-5(4H)-one] showed an IC50 of 250 to 2000 nM. In the case of `CCc1cc(-n2nc(C)n(Cc3cc(F)cc(OC)c3)c2=O)ccc1-c1cn[nH]c1` [Example 115, 1-(3-ethyl-4-(1H-pyrazol-4-yl)phenyl)-4-(3-fluoro-5-methoxybenzyl)-3-methyl-1H-1,2,4-triazol-5(4H)-one], the IC50 is reported as 5 to 50 nM. With `CCc1cc(-n2nc(C)n(Cc3c(F)cccc3F)c2=O)ccc1-c1cn[nH]c1` [Example 116, 4-(2,6-difluorobenzyl)-1-(3-ethyl-4-(1H-pyrazol-4-yl)phenyl)-3-methyl-1H-1,2,4-triazol-5(4H)-one] the IC50 was 250 to 2000 nM. Compound `CCc1cc(-n2nc(C)n(Cc3ccccc3)c2=O)ccc1-c1cn[nH]c1` [Example 117, 4-benzyl-1-(3-ethyl-4-(1H-pyrazol-4-yl)phenyl)-3-methyl-1H-1,2,4-triazol-5(4H)-one] has an IC50 of 5 to 50 nM. Compound `COc1cc(Cn2c(C)nn(-c3ccc(-c4cn[nH]c4)cc3)c2=O)cc(OC)c1` [Example 120, 1-(4-(1H-pyrazol-4-yl)phenyl)-4-(3,5-dimethoxybenzyl)-3-methyl-1H-1,2,4-triazol-5(4H)-one] has an IC50 of 250 to 2000 nM. For `COc1cc(Cn2c(C)nn(-c3ccc(-c4cn[nH]c4)cc3)c2=O)ccc1F` [Example 121, 1-(4-(1H-pyrazol-4-yl)phenyl)-4-(4-fluoro-3-methoxybenzyl)-3-methyl-1H-1,2,4-triazol-5(4H)-one], the IC50 was less than 5 nM. For `COc1cccc(Cn2c(C)nn(-c3ccc(-c4cn[nH]c4)cc3)c2=O)c1F` [Example 122, 1-(4-(1H-pyrazol-4-yl)phenyl)-4-(2-fluoro-3-methoxybenzyl)-3-methyl-1H-1,2,4-triazol-5(4H)-one], the IC50 was 250 to 2000 nM. Compound `COc1ccc(F)cc1Cn1c(C)nn(-c2ccc(-c3cn[nH]c3)cc2)c1=O` [Example 123, 1-(4-(1H-pyrazol-4-yl)phenyl)-4-(5-fluoro-2-methoxybenzyl)-3-methyl-1H-1,2,4-triazol-5(4H)-one] has an IC50 of 50 to 250 nM. In the case of `COc1ccc(Cn2c(C)nn(-c3ccc(-c4cn[nH]c4)cc3)c2=O)cc1F` [Example 124, 1-(4-(1H-pyrazol-4-yl)phenyl)-4-(3-fluoro-4-methoxybenzyl)-3-methyl-1H-1,2,4-triazol-5(4H)-one], the IC50 is reported as 250 to 2000 nM. In the case of `COc1cccc(Cn2c(CO)nn(-c3ccc(-c4cn[nH]c4)cc3)c2=O)c1` [Example 125, 1-(4-(1H-pyrazol-4-yl)phenyl)-3-(hydroxymethyl)-4-(3-methoxybenzyl)-1H-1,2,4-triazol-5(4H)-one], the IC50 is reported as less than 5 nM. `O=c1n(-c2ccc(-c3cn[nH]c3)cc2)nc(CO)n1Cc1ccccc1` [Example 126, 1-(4-(1H-pyrazol-4-yl)phenyl)-4-benzyl-3-(hydroxymethyl)-1H-1,2,4-triazol-5(4H)-one] was tested, and the IC50 was 5 to 50 nM. With `COc1cc(Cn2c(CO)nn(-c3ccc(-c4cn[nH]c4)cc3)c2=O)cc(OC)c1` [Example 127, 1-(4-(1H-pyrazol-4-yl)phenyl)-4-(3,5-dimethoxybenzyl)-3-(hydroxymethyl)-1H-1,2,4-triazol-5(4H)-one] the IC50 was 50 to 250 nM. For `O=c1n(-c2ccc(-c3cn[nH]c3)cc2)nc(CO)n1Cc1cccc(F)c1` [Example 128, 1-(4-(1H-pyrazol-4-yl)phenyl)-4-(3-fluorobenzyl)-3-(hydroxymethyl)-1H-1,2,4-triazol-5(4H)-one], the IC50 was 5 to 50 nM. For `O=c1n(-c2ccc(-c3cn[nH]c3)cc2)nc(CO)n1Cc1cc(F)ccc1F` [Example 129, 1-(4-(1H-pyrazol-4-yl)phenyl)-4-(2,5-difluorobenzyl)-3-(hydroxymethyl)-1H-1,2,4-triazol-5(4H)-one], the IC50 was 5 to 50 nM. Work on `O=c1n(-c2ccc(-c3cn[nH]c3)cc2)nc(CO)n1Cc1cc(F)cc(F)c1` [Example 130, 1-(4-(1H-pyrazol-4-yl)phenyl)-4-(3,5-difluorobenzyl)-3-(hydroxymethyl)-1H-1,2,4-triazol-5(4H)-one] yielded an IC50 of 5 to 50 nM. For `O=c1n(-c2ccc(-c3cn[nH]c3)cc2)nc(CO)n1Cc1cccc(OC(F)F)c1` [Example 131, 1-(4-(1H-pyrazol-4-yl)phenyl)-4-(3-(difluoromethoxy)benzyl)-3-(hydroxymethyl)-1H-1,2,4-triazol-5(4H)-one], the IC50 was 5 to 50 nM.
